# Assay results taken from US6087355A, “Cephalosporin antibiotics” (Microcide Pharmaceuticals, Inc., priority 1996, dated 2000).
# Counter-ions that a name gives are not always drawn.
# Assays:
# [1] = tested on: S. aureus strain ATCC 13709 (methicillin-susceptible); experiment: Murine model for lethal bacteremic peritonitis; format: in vivo, female Swiss-Webster mice; settings: Staphylococcus aureus, ATCC13709, SC, 72 h; for responders at 1.25 mg/kg: read-out: Survivors (converted); for ED50: two equal doses, IP challenge, read-out: ED50
# Procedure, shortened: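 Female Swiss-Webster mice were challenged IP with an LD100 inoculum in 7% hog gastric mucin, then given test drug subcutaneously in twofold increments (0.01–512 mg/kg) as two equal doses at challenge and 2 h later, 10 mice per group. Survival was scored at 72 h; PD50 (total mg/kg) was derived by probit.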
# E. faecalis ATCC 29212 = experiment: In vitro MIC, agar dilution; format: cell-based; settings: Enterococcus faecalis, ATCC29212, read-out: minimum inhibitory concentration (MIC)
# Procedure, shortened: (§1)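 Agar dilution on Mueller-Hinton plates: spots of roughly 10^4 cfu of log-phase bacteria were placed on agar containing serial two-fold compound dilutions, from a 128 μg/mL top working level to ≤0.25 μg/mL, each in duplicate. After 16-20 hours at 35-36° C, the lowest growth-inhibiting concentration was taken as the MIC.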
# [2] = tested on: S. aureus Spain #356(Meth^R); experiment: In vitro MIC, agar dilution; format: cell-based; settings: Staphylococcus aureus, read-out: minimum inhibitory concentration (MIC)
# Procedure, shortened: as §1
# E. faecalis VanB(Van^R) = experiment: In vitro MIC, agar dilution; format: cell-based; settings: Enterococcus faecalis, read-out: minimum inhibitory concentration (MIC)
# Procedure, shortened: as §1
# E. faecium ATCC 35667 = experiment: In vitro MIC, agar dilution; format: cell-based; settings: Enterococcus faecium, ATCC35667, read-out: minimum inhibitory concentration (MIC)
# Procedure, shortened: as §1
# [3] = tested on: S. haemolyticus 05(Meth^R); experiment: In vitro MIC, agar dilution; format: cell-based; settings: Staphylococcus haemolyticus, read-out: minimum inhibitory concentration (MIC)
# Procedure, shortened: as §1
# [4] = tested on: S. aureus 76(Meth^R)(lac^+); experiment: In vitro MIC, agar dilution; format: cell-based; settings: Staphylococcus aureus, read-out: minimum inhibitory concentration (MIC)
# Procedure, shortened: as §1
# E. faecium VanA(Van^R) = experiment: In vitro MIC, agar dilution; format: cell-based; settings: Enterococcus faecium, read-out: minimum inhibitory concentration (MIC)
# Procedure, shortened: as §1
# E. coli ATCC 25992 = experiment: In vitro MIC, agar dilution; format: cell-based; settings: Escherichia coli, ATCC25992, read-out: minimum inhibitory concentration (MIC)
# Procedure, shortened: as §1
# S. aureus ATCC 29213 = experiment: In vitro MIC, agar dilution; format: cell-based; settings: Staphylococcus aureus, ATCC29213, read-out: minimum inhibitory concentration (MIC)
# Procedure, shortened: as §1
# P. aeruginosa ATCC 27853 = experiment: In vitro MIC, agar dilution; format: cell-based; settings: Pseudomonas aeruginosa, ATCC27853, read-out: minimum inhibitory concentration (MIC)
# Procedure, shortened: as §1
# [5] = tested on: S. aureus ATCC 33593(Meth^R); experiment: In vitro MIC, agar dilution; format: cell-based; settings: Staphylococcus aureus, ATCC33593, read-out: minimum inhibitory concentration (MIC)
# Procedure, shortened: as §1
# [6] = tested on: S. aureus PC1(Meth^S)(lac^+); experiment: In vitro MIC, agar dilution; format: cell-based; settings: Staphylococcus aureus, read-out: minimum inhibitory concentration (MIC)
# Procedure, shortened: as §1
# E. faecium A491(Amp^R) = experiment: In vitro MIC, agar dilution; format: cell-based; settings: Enterococcus faecium, read-out: minimum inhibitory concentration (MIC)
# Procedure, shortened: as §1
# [7] = tested on: S. aureus Col(Meth^R)(lac^-); experiment: In vitro MIC, agar dilution; format: cell-based; settings: Staphylococcus aureus, read-out: minimum inhibitory concentration (MIC)
# Procedure, shortened: (§2)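 Two-fold dilutions (128 to ≤0.25 μg/mL, in duplicate) were poured into Mueller-Hinton agar. Log-phase broth cultures were spot-inoculated at about 10^4 cfu per spot and incubated 35-36°C for 16-20 hours; the MIC was the lowest concentration inhibiting growth. Col is a high-level PBP2a producer; Col 8A is its isogenic PBP2a-lacking partner.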
# [8] = tested on: S. aureus Col8A(Meth^S)(lac^-); experiment: In vitro MIC, agar dilution; format: cell-based; settings: Staphylococcus aureus; S. aureus Col8A(Meth^S)(lac^-); read-out: minimum inhibitory concentration (MIC)
# Procedure, shortened: as §2
# [9] = tested on: S. aureus ATCC 13709(Meth^S); experiment: In vitro MIC, agar dilution; format: cell-based; settings: Staphylococcus aureus, ATCC13709, S. aureus ATCC 13709(Meth^S); read-out: minimum inhibitory concentration (MIC)
# Procedure, shortened: as §1
SMILES,responders at 0.3125 mg/kg ([1]; read-out: Survivors) [%],responders at 0.625 mg/kg ([1]; read-out: Survivors) [%],responders at 1.25 mg/kg [1] [%],responders at 2.5 mg/kg ([1]; read-out: Survivors) [%],MIC (E. faecalis ATCC 29212) [µg/mL],MIC [2] [µg/mL],MIC (E. faecalis VanB(Van^R)) [µg/mL],MIC (E. faecium ATCC 35667) [µg/mL],MIC [3] [µg/mL],MIC [4] [µg/mL],MIC (E. faecium VanA(Van^R)) [µg/mL],MIC (E. coli ATCC 25992) [µg/mL],MIC (S. aureus ATCC 29213) [µg/mL],MIC (P. aeruginosa ATCC 27853) [µg/mL],MIC [5] [µg/mL],MIC [6] [µg/mL],MIC (E. faecium A491(Amp^R)) [µg/mL],MIC [7] [µg/mL],MIC [8] [µg/mL],MIC [9] [µg/mL],further results
"N=C(N)SCc1cnccc1SC1=C(C(=O)O)N2C(=O)[C@@H](NC(=O)Cc3ccccc3)[C@H]2SC1 [Cmpd 1, (7R)-7-[(phenylacetyl)amino]-3-(3-isothioureidomethylpyrid-4-ylthio)-3-cephem-4-carboxylate, trifluoroacetic acid salt]",50,60,80,100,1,8,4,2,16,8,8,> 32,0.13,> 32,8,1,> 32,4,≤ 0.06,–,"responders at 0.156 mg/kg ([1]; Dose 0.156 mg/kg, read-out: Survivors): 20%; ED50 [1]: 0.39 mg/kg"
"N=C(N)SCc1nnsc1SC1=C(C(=O)O)N2C(=O)[C@@H](NC(=O)Cc3ccccc3)[C@H]2SC1 [Cmpd 2, (7R)-7-[(phenylacetyl)amino]-3-(4-isothioureidomethyl-1,2,3-thiadiazol-5-ylthio)-3-cephem-4-carboxylate, trifluoroacetic acid salt]",–,–,–,–,0.5,4,0.5,1,4,4,4,16,≤ 0.06,> 32,4,0.5,> 32,1,≤ 0.06,–,–
"N=C(N)SCc1ncsc1SC1=C(C(=O)O)N2C(=O)[C@@H](NC(=O)Cc3ccccc3)[C@H]2SC1 [Cmpd 5, (7R)-7-[(phenylacetyl)amino]-3-(4-isothioureidomethylthiazol-5-ylthio)-3-cephem-4-carboxylate, trifluoroacetic acid salt]",–,–,–,–,2,16,4,4,16,16,32,> 32,0.13,> 32,16,0.25,> 32,8,≤ 0.06,≤ 0.06,–
"O=C(Cc1ccccc1)N[C@@H]1C(=O)N2C(C(=O)O)=C(Sc3snnc3CSC3CCNC3)CS[C@H]12 (stereo partly drawn) [Cmpd 6, (7R)-7-[(phenylacetyl)amino]-3-[4-(3-pyrrolidinothiomethyl)-1,2,3-thiadiazol-5-ylthio]-3-cephem-4-carboxylate, trifluoroacetic acid salt]",–,–,–,–,0.5,8,8,2,16,8,8,> 32,0.25,> 32,8,0.5,> 32,2,0.13,≤ 0.06,–
"Nc1nc(/C(=N/O)C(=O)N[C@@H]2C(=O)N3C(C(=O)O)=C(Sc4ccncc4CSC[C@H](N)CO)CS[C@H]23)c(Cl)s1 [Cmpd 65, (7R)-7-[(Z)-2-(2-amino-5-chlorothiazol-4-yl)-2-(hydroxyimino)acetamido]-3-[3-(2R-2-amino-3-hydroxyprop-1-ylthiomethyl)pyrid-4-ylthio]-3-cephem-4-carboxylate, trifluoroacetic acid salt]",10,20,10,30,0.25,4,0.5,–,4,4,2,16,0.5,> 32,4,1,16,2,0.5,0.5,"responders at 5 mg/kg ([1]; Dose 5 mg/kg, read-out: Survivors): 80%; ED50 [1]: 3.1 mg/kg"
